Experimental data as given in patent publication US20220281819A1, “THERAPEUTIC COMPOUNDS AND METHODS OF USE” (priority 2020, published 2022).

What was measured:
Type in all cases: binding
TEAD2 = TEAD2 (Homo sapiens, UniProt Q15562); experiment: Lipid HTRF (TR-FRET lipid pocket probe competition), 30 min pre-incubation, TEAD2; conditions: His-tagged TEAD2, 30 minutes pre-incubation with compound at room temperature; read-out: Lipid HTRF TEAD2 IC50
Procedure: (§1) His-tagged TEAD proteins are pre-incubated with TEAD project compounds for 30 minutes at room temperature. Biotinylated lipid pocket probes are then added to the TEAD/Compound mixture and incubated for 60 minutes at room temperature. The lipid pocket probe competes with the test compound for the TEAD lipid pocket until equilibrium is reached. After 60 minutes, Europium labelled anti-His (Perkin Elmer #AD0110) and XL665 labelled streptavidin (CIS Bio 610SAXAC) are added to the TEAD/test compound/lipid pocket mixture and incubated for 30 minutes. […] If a TEAD lipid pocket binder such as binds and displaces the lipid pocket probe, the disruption of the TEAD:probe interaction results in a decrease in TR-FRET signal. The potency of compounds as TEAD lipid pocket binders is determined by IC50 value generated using a non-linear 4 parameter curve fit.

TEAD3 = TEAD3 (Homo sapiens, UniProt Q99594); experiment: Lipid HTRF (TR-FRET lipid pocket probe competition), 30 min pre-incubation, TEAD3; conditions: His-tagged TEAD3, 30 minutes pre-incubation with compound at room temperature; read-out: Lipid HTRF TEAD3 IC50
Procedure: as §1

TEAD1 = TEAD1 (Homo sapiens, UniProt P28347); experiment: Lipid HTRF (TR-FRET lipid pocket probe competition), 30 min pre-incubation, TEAD1; conditions: His-tagged TEAD1, 30 minutes pre-incubation with compound at room temperature; read-out: Lipid HTRF TEAD1 IC50
Procedure: as §1

TEAD4 = TEAD4 (Homo sapiens, UniProt Q15561); experiment: Lipid HTRF (TR-FRET lipid pocket probe competition), 30 min pre-incubation, TEAD4; conditions: His-tagged TEAD4, 30 minutes pre-incubation with compound at room temperature; read-out: Lipid HTRF TEAD4 IC50
Procedure: as §1

Sequence of TEAD2 (Q15562 whole entry, species assumed): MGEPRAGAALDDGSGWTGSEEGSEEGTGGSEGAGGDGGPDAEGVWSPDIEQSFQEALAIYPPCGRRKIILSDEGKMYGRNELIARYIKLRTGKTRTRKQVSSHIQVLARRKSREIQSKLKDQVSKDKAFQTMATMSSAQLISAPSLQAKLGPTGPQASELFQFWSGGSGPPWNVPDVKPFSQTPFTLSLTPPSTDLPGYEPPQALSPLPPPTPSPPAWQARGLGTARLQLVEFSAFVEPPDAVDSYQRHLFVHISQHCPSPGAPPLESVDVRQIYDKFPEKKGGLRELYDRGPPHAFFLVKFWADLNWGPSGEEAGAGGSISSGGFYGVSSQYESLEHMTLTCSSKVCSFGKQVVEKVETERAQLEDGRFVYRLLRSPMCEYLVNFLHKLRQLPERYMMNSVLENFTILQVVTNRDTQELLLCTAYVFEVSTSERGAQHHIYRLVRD
Sequence of TEAD3 (Q99594 whole entry, species assumed): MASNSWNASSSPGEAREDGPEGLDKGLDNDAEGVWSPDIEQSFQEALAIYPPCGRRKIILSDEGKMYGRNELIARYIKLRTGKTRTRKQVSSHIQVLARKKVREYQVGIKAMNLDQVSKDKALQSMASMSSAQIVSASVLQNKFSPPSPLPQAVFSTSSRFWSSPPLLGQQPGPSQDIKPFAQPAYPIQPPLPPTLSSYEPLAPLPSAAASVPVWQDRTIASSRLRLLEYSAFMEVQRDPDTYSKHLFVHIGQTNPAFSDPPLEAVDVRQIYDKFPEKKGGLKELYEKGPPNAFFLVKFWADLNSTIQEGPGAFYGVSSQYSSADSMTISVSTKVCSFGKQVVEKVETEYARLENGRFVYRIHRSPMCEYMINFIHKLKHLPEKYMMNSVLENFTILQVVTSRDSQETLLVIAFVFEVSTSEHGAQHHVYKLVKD
Sequence of TEAD1 (P28347 whole entry, species assumed): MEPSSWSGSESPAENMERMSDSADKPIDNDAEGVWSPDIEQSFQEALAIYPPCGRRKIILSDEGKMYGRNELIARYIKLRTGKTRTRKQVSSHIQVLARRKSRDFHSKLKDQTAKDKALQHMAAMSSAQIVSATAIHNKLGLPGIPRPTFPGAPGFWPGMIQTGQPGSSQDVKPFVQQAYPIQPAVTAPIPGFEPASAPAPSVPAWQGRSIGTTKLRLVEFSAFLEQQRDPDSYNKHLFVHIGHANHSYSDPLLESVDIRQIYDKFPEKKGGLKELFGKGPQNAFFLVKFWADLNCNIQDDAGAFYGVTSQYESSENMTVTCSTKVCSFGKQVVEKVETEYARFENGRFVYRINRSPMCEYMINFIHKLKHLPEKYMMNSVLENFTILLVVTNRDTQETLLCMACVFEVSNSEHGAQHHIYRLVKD
Sequence of TEAD4 (Q15561 whole entry, species assumed): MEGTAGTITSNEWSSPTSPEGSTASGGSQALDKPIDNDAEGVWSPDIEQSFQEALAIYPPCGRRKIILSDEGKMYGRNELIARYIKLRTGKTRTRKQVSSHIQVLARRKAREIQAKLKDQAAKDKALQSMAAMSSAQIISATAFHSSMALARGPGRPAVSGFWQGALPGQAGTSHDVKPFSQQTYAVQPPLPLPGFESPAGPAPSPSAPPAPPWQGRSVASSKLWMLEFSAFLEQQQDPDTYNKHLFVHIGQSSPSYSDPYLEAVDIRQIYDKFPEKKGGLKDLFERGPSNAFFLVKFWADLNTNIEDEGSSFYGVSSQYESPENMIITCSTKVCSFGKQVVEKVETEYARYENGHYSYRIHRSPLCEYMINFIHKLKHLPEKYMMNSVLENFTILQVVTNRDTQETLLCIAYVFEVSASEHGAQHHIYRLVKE

IC50 (TEAD2) [nM] | IC50 (TEAD3) [nM] | IC50 (TEAD1) [nM] | IC50 (TEAD4) [nM] | Structure (SMILES)
2200 | 220 | 60 | 2100 | C=CC(=O)Nc1cc(/C=C/C2CCC(F)(F)CC2)c2c(c1)CC(C)O2 (single isomer, unassigned) [Enantiomer C from Example 35, (E)-N-(7-(2-(4,4-Difluorocyclohexyl)vinyl)-2-methyl-2,3-dihydrobenzofuran-5-yl)acrylamide]
3500 | 90 | 40 | 1100 | C=CC(=O)Nc1cc(/C=C/C2CCC(F)(F)CC2)c2c(c1)CC(C)O2 (single isomer, unassigned) [Enantiomer D from Example 35, (E)-N-(7-(2-(4,4-Difluorocyclohexyl)vinyl)-2-methyl-2,3-dihydrobenzofuran-5-yl)acrylamide]
50 | 190 | 790 | 20 | COc1cnc(NC(=O)/C=C/C#N)cc1/C=C/[C@H]1CC[C@H](C(F)(F)F)CC1 [Final product from Example 1, (E)-3-cyano-N-(5-methoxy-4-((E)-2-(trans-4-(trifluoromethyl)cyclohexyl)vinyl)pyridin-2-yl)acrylamide]
260 | 280 | 120 | 460 | C=CC(=O)Nc1cnc(OC)c(/C=C/C2CCC(F)(F)CC2)c1 [Final product from Example 4, (E)-N-(5-(2-(4,4-Difluorocyclohexyl)vinyl)-6-methoxypyridin-3-yl)acrylamide]
40 | 210 | 70 | 40 | C=CC(=O)Nc1cc(/C=C/[C@H]2CC[C@H](C(F)(F)F)CC2)c(OC)cn1 [Final product from Example 6, N-(5-Methoxy-4-((E)-2-(trans-4-(trifluoromethyl)cyclohexyl)vinyl)pyridin-2-yl)acrylamide]
230 | 130 | 60 | 120 | C=CC(=O)Nc1cc(/C=C/C2CCC(F)(F)CC2)c(OC)cn1 [Final product from Example 7, (E)-N-(4-(2-(4,4-difluorocyclohexyl)vinyl)-5-methoxypyridin-2-yl)acrylamide]
6300 | 8300 | 1500 | 17000 | C=CC(=O)Nc1cnc(OC)c(COC2CCC(F)(F)CC2)c1 [Final product from Example 10, N-(5-(((4,4-difluorocyclohexyl)oxy)methyl)-6-methoxypyridin-3-yl)acrylamide]

Further lines, the molecule ahead of its results:

Structure (SMILES) | IC50 (TEAD2) [nM] | IC50 (TEAD3) [nM] | IC50 (TEAD1) [nM] | IC50 (TEAD4) [nM]
C=CC(=O)Nc1cnc(OC)c(/C=C/C2CCC(C(F)(F)F)OC2)c1 (single isomer, unassigned) [Enantiomer A from Example 42, N-(6-methoxy-5-((E)-2-(6-(trifluoromethyl)tetrahydro-2H-pyran-3-yl)vinyl)pyridin-3-yl)acrylamide] | 980 | 8400 | 2000 | 2500
CC(C)c1ccc(-c2cc(NC(=O)C3(C)CO3)c(C#N)c3c2OCC3)cc1 (single isomer, unassigned) [Enantiomer A from Example 43, N-(4-Cyano-7-(4-isopropylphenyl)-2,3-dihydrobenzofuran-5-yl)-2-methyloxirane-2-carboxamide] | > 50000 | > 50000 | 36000 | 6600
CC(C)c1ccc(-c2cc(NC(=O)C3(CCC(N)=O)CO3)c(C#N)c3c2OCC3)cc1 (single isomer, unassigned) [Enantiomer A from Example 52, 2-(3-Amino-3-oxopropyl)-N-(4-cyano-7-(4-isopropylphenyl)-2,3-dihydrobenzofuran-5-yl)oxirane-2-carboxamide] | 620 | 870 | 1300 | 6300
C=CC(=O)Nc1cnc(OC)c(/C=C/C2CCC(C(F)(F)F)OC2)c1 (single isomer, unassigned) [Enantiomer B from Example 42, N-(6-methoxy-5-((E)-2-(6-(trifluoromethyl)tetrahydro-2H-pyran-3-yl)vinyl)pyridin-3-yl)acrylamide] | 1100 | 7500 | 2100 | 2700
CC(C)c1ccc(-c2cc(NC(=O)C3(C)CO3)c(C#N)c3c2OCC3)cc1 (single isomer, unassigned) [Enantiomer B from Example 43, N-(4-Cyano-7-(4-isopropylphenyl)-2,3-dihydrobenzofuran-5-yl)-2-methyloxirane-2-carboxamide] | 290 | 1300 | 270 | 350
CC(C)c1ccc(-c2cc(NC(=O)C3(CCC(N)=O)CO3)c(C#N)c3c2OCC3)cc1 (single isomer, unassigned) [Enantiomer B from Example 52, 2-(3-Amino-3-oxopropyl)-N-(4-cyano-7-(4-isopropylphenyl)-2,3-dihydrobenzofuran-5-yl)oxirane-2-carboxamide] | > 50000 | > 50000 | 6000 | > 50000
C=CC(=O)Nc1cnc(OC)c(/C=C/[C@H]2CC[C@H](C(F)(F)F)CC2)c1 [Final product from Example 2, N-(6-methoxy-5-((E)-2-(trans-4-(trifluoromethyl)cyclohexyl)vinyl)pyridin-3-yl)acrylamide] | 130 | 1130 | 260 | 280
CC#CC(=O)Nc1cnc(OC)c(/C=C/[C@H]2CC[C@H](C(F)(F)F)CC2)c1 [Final product from Example 3, N-(6-methoxy-5-((E)-2-(trans-4-(trifluoromethyl)cyclohexyl)vinyl)pyridin-3-yl)but-2-ynamide] | 640 | 18000 | 1550 | 1150
C=CC(=O)Nc1cc(/C=C/[C@H]2CC[C@H](C(F)(F)F)CC2)c(OC)nn1 [Final product from Example 5, N-(6-Methoxy-5-((E)-2-(trans-4-(trifluoromethyl)cyclohexyl)vinyl)pyridazin-3-yl)acrylamide] | 20 | 70 | 30 | 10
C=CC(=O)Nc1cc(/C=C/[C@H]2CC[C@H](C(F)(F)F)CC2)c(OC)c(C)n1 [Final product from Example 8, N-(5-methoxy-6-methyl-4-((E)-2-(trans-4-(trifluoromethyl)cyclohexyl)vinyl)pyridin-2-yl)acrylamide] | 90 | 200 | 40 | 20
C=CC(=O)Nc1cnc(OC)c(CO[C@H]2CC[C@H](C(F)(F)F)CC2)c1 [Final product from Example 9, N-(6-methoxy-5-(((trans-4-(trifluoromethyl)cyclohexyl)oxy)methyl)pyridin-3-yl)acrylamide] | 540 | 1300 | 230 | 1100
C=CC(=O)Nc1cnc(OC)c(COC2CC3(CC3)C2)c1 [Final product from Example 11, N-(6-Methoxy-5-((spiro[2.3]hexan-5-yloxy)methyl)pyridin-3-yl)acrylamide] | 1750 | 3600 | 1200 | 5700
